Results on 4 compounds are retold here after article PMC9974463 (Proceedings of the National Academy of Sciences of the …, 2023).

Assay [1] has as its target AbCphZ E251A (Acinetobacter baylyi DSM587). Briefly: ITC. (Isothermal titration calorimetry measures the heat released or taken up as one component is titrated into another.)
Assay [2] has as its target T1, AbCphZ (Acinetobacter baylyi, UniProt Q6FCQ4, E251A).
T1 sequence (Q6FCQ4 1-383 E251A): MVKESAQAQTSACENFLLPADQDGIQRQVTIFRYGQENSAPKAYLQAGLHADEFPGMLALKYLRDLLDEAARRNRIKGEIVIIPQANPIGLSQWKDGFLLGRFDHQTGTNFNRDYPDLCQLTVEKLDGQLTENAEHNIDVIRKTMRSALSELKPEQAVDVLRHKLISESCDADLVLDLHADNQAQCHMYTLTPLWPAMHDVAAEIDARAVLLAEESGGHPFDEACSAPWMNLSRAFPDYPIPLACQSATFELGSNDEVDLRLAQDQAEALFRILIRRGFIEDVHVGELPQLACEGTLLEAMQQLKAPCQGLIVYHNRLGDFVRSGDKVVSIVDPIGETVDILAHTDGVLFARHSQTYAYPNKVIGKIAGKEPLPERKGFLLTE
In words: isothermal titration calorimetry. The format is binding.

The target in assay [3] is T2, PaAotO (Pseudomonas aeruginosa, UniProt O50184).
T2 sequence (O50184 1-370): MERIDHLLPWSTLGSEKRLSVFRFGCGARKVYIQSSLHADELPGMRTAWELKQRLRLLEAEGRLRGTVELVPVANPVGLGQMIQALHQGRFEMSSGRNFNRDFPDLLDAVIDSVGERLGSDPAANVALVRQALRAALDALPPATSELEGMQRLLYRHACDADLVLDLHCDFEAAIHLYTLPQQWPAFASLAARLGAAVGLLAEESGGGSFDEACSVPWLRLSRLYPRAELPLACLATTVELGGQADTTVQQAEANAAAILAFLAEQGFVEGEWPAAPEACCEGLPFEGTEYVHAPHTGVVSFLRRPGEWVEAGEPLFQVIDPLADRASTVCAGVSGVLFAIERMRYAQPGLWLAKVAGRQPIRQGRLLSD
Briefly: Arg release coupled assay. The conditions noted are these: 1 mM substrate, 500 nM enzyme. The format is biochemical.

In assay [4] the target is Acinetobacter baylyi cyanophycin dipeptide hydrolase CphZ (Acinetobacter baylyi DSM587). In words: SEC. On the technique in general: In gel filtration, larger molecules generally elute earlier.

For β-Asp-Arg dipeptide, the Kd (in general, the constant that tells how readily two partners part at equilibrium) in assay [1] was found to be 7.6 µM.

As to `N=C(N)NCCC[C@H](N)C(=O)O` [Arg], the Kd in assay [2] was found to be 471 ± 16.8 µM.

With `N=C(N)NCCC[C@H](NC(=O)C[C@H](N)C(=O)O)C(=O)O` [β-Asp-Arg], the Kd in assay [2] amounted to 7.6 ± 0.1 µM. For the same compound, in assay [3], the “Arg release coupled assay (340 nm)” value is “AotO is specific for β-Asp-Arg and hydrolyzes it at a rate comparable to AbCphZ”.

As for “Acinetobacter baylyi cyanophycin dipeptide hydrolase CphZ (enzyme)”, the stoichiometry N (commonly a count of units in the complex or per binding partner) in assay [4] was found to be 2.
